What all share (format): cell-based, C57BL/6 mice
Experiment [1] deals with mature PC (CD24-mid & LYZ+) and secretory precursor (CD24-hi) populations. Description: Flow cytometry profiling of organoids in 2.5-D (CD24, LYZ). To be noted: 6-day ENR+CD+treatment, fraction of viable cells, n=3 bio. donors. For orientation: Flow cytometry measures light scatter and fluorescence of single cells or particles in a stream.
Description: Cells processed for flow cytometry were first gated to exclude potential debris or doublets (via widely accepted forward and side scatter gating), and subsequently gated for viability (via Zombie-violet viability dye exclusion), all viable cells were considered for CD24 & LYZ expression analysis. […] For flow cytometry profiling of the 6 validate small molecules, ISC-enriched ‘small clusters’ in 3D Matrigel culture were passaged to a “2.5D” 96-well plate culture system for six days of ENR, or ENR+CD+drug culture in the same manner as described previously with the exception of plating in 96-well plates prepared with a polymerized 70% Matrigel coating in each well. Plates were centrifuged at 50 g for 1 min at 4° C. to allow for cells to partially embed in Matrigel coating. Drugs were pinned into their respective wells using the Tecan from a drug stamp plate. Media was changed at day three, including pinning of the drug treatments. At day six, cells were washed 3× with basal media, then harvested from Matrigel by mechanical disruption in TrypLE Express to remove Matrigel and dissociate organoids to single cells. After vigorous pipetting and incubation at 37° C. for 20 mins, dissociated organoids were strained through a 96-well filter plate with a 30-40 μm filter (Pall) into an ultra low-bind 96-well plate (Costar) by centrifuging at 300×g for 3 mins at 4° C. The cell filtrate was centrifuged again at 300×g for 3 mins at 4° C. to pellet the cells. Cell pellets were resuspended in FACS buffer (2% FBS in PBS0), then transferred to an ultra low-bind 96-well plate for flow prep. Cells were stained with Zombie-violet viability dye (BioLegend) at 100× for viability staining and/or antibody staining solution. FITC-conjugated antibody for lysozyme and APC-conjugated antibody for CD24 were used at 100× dilution (BioLegend). Flow cytometry was performed using a LSR Fortessa (BD; Koch Institute Flow Cytometry Core at MIT). Flow cytometry data was analyzed using FlowJo X v10.1 software.
In experiment [2] the test system is organoids differentiated under ENR+CV, ENR+CD, or ENR. Description: Western blotting for LYZ in organoids. To be noted: six days in ENR+CV. An excerpt: ISC-enriched organoids cultured in 3D Matrigel with ENRCV media were passaged to 24-well plate in 3D Matrigel with ENRCV. At day zero, media were replaced to ENR or ENRCD with or without indicated compounds, and media were replaced every other day. At day six, cells were harvested from Matrigel by mechanical disruption and suspended in basal media. Cell pellets were lysed with Pierce® IP lysis buffer (ThermoFisher, 87787) containing Halt™ Protease Inhibitor Cocktail, EDTA-Free (ThermoFisher, 87785) after 3-minute centrifuge at 300×g at 4° C. Cell extracts were resolved by NuPAGE® SDS-PAGE Gel system (ThermoFisher) and electroblotted onto polyvinylidene difluoride membranes using Criterion™ Blotter (Biorad). The membranes were blocked with 2% Blotting-Grade Blocker (Biorad, 1706404) in TBS-T (50 mM Tris-HCl, 150 mM NaCl, and 0.1% Tween 20, pH 8.0) and then probed with appropriate antibodies. Detection was performed using ECL Select™ Western Blotting Detection Reagent (Amersham, 45-000-999) and ImageQuant LAS4000 (GE Healthcare).

The subject of another experiment is ENR+CD organoids. Description: Flow cytometry analysis, 3D culture, XPO1 inhibitors. The settings on record: 6-day ENR+CD organoids. As for the experimental part:
ISC-enriched organoids cultured in 3D Matrigel with ENRCV media were passaged to 24-well plate in 3D Matrigel with ENRCV. At day zero, media were replaced to ENRCD with or without indicated compounds, and media were replaced every other day. At day six, cells were washed with basal media, and then harvested from Matrigel by mechanical disruption in TrypLE Express (ThermoFisher, 12605010) to remove Matrigel and dissociate organoids to single cells. After vigorous pipetting and incubation at 37° C. for 20 min, dissociated organoids were strained through a 35 μm cell strainer into a tube (Falcon, 352235). The cell filtrate was centrifuged again at 300×g for 3 min at 4° C. to pellet the cells. Cell pellets were resuspended in FACS buffer (2% FBS in PBS), and then transferred to an ultra low-bind 96-well plate (Corning, 7007). Cells were stained with Zombie-violet viability dye (BioLegend, 423107) at 100× for viability staining and/or antibody staining solution. FITC-conjugated antibody for lysozyme (Dako, […]) and APC-conjugated antibody for CD24 (BioLegend, 138505) were used at 100× dilution. Flow cytometry was performed using an LSR Fortessa (BD; Koch Institute Flow Cytometry Core at MIT). The data were analyzed using FlowJo v10 software.

With `O=C(/C=C\n1cnc(-c2cc(C(F)(F)F)cc(C(F)(F)F)c2)n1)NNc1cnccn1` [KPT-330], in experiment [1], the “mature PC (CD24-mid & LYZ+) population relative to control” value was “statistically significant increase (adj. p<0.01)” and the “secretory precursor (CD24-hi) population relative to control” value is “trend to a smaller population”. Besides, in experiment [2], the “LYZ abundance on a per-mass protein normalized basis (western blot)” value is “appreciably increase LYZ abundance”. For the same molecule, the “Paneth cell representation by flow cytometry” value in the experiment with ENR+CD organoids was “statistically significant increases in Paneth cell representation”.

The values above are taken from patent US20200237852A1, “Small Molecule Enhancers of Paneth Cell Function and Differentiation” (Massachusetts Institute of Technology, priority 2019, published 2020).
